Publication PMC2788676 (Journal of medicinal chemistry, 2009)

What was measured:
μ-opioid receptor = settings: read-out: μ-opioid receptor Ki; cited from earlier work
human μ-opiate receptor = human μ-opiate receptor (Homo sapiens, UniProt P35372); assay: [35S]GTP-γ-S functional binding assay, CHO hMOR cells; format: biochemical; settings: for Emax: read-out: μ-Agonism Emax %; for efficacy as μ-agonist (in words): [35S]GTP-γ-S functional assay
δ-opiate receptor = δ-opiate receptor (Homo sapiens, UniProt P41143); assay: [3H]DADLE opioid receptor binding, transfected CHO cells; settings: relative to μ Ki
κ-opiate receptor = κ-opiate receptor (Homo sapiens, UniProt P41145); assay: [3H]U69,593 opioid receptor binding, transfected CHO cells; settings: relative to μ Ki
κ-opiate receptor, sequence (P41145 whole entry): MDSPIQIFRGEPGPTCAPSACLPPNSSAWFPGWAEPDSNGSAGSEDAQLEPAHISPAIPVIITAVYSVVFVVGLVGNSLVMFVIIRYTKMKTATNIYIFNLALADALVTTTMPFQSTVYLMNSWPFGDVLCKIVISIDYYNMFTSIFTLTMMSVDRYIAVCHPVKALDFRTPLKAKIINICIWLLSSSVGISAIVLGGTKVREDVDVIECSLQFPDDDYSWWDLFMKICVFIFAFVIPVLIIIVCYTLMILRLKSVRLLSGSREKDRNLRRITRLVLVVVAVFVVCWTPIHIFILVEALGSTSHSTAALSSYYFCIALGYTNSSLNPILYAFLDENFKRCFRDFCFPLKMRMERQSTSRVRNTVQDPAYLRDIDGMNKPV

human μ-opiate receptor, sequence (P35372 whole entry): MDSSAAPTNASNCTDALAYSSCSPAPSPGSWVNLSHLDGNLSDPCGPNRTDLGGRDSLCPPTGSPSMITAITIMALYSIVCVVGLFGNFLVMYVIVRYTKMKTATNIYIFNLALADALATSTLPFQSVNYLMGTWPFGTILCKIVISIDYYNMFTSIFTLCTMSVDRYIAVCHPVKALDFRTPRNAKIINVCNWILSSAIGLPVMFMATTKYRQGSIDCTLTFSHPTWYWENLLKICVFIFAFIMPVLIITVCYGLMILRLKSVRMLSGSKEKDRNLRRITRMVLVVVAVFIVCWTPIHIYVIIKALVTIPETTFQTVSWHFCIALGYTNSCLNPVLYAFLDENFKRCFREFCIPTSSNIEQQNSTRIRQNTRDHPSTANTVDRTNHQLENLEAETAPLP
δ-opiate receptor, sequence (P41143 whole entry): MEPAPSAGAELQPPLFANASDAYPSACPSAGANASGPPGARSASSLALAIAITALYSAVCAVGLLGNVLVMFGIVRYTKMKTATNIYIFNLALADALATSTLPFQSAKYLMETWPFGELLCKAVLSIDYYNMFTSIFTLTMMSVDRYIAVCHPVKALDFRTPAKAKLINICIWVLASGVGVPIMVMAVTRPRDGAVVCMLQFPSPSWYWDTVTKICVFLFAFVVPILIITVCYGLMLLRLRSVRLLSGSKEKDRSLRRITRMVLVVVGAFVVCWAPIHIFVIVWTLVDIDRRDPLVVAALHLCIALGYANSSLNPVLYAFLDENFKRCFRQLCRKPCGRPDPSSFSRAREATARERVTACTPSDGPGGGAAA

Row | Structure (SMILES) | Ki (μ-opioid receptor) | EC50 (human μ-opiate receptor) | Kb (human μ-opiate receptor) | Emax (human μ-opiate receptor) | efficacy as μ-agonist (in words) (human μ-opiate receptor) | fold less affinity at the δ-receptor than at the μ-receptor (δ-opiate receptor) | fold less affinity at the κ-receptor than at the μ-receptor (κ-opiate receptor)
1 | Oc1ccc2c(c1)[C@]13CCC[C@H](C1)NC[C@@H]3O2 (single isomer, unassigned) [para-d isomer, (3R*,6aS*11aR*)-1,3,4,5,6,11a-hexahydro-2H-3,6a-methanobenzofuro[2,3-c]azocin-8-ol] | 1.22 µM |  |  |  |  |  | 
2 | CC[C@@]12CCNC[C@@H]1Oc1ccc(O)cc12 [Compound 20, 4aS,9aR-(−)-cis-4a-Ethyl-1,2,3,4,4a,9a-hexahydrobenzofuro[2,3-c]pyridin-6-ol] |  | 0.15 ± 0.025 µM | 0.095 µM | 97 ± 4% |  |  | 
3 | CC[C@@]12CCN(C)C[C@@H]1Oc1ccc(O)cc12 [Compound 21, 4aS,9aR-(−)-cis-4a-Ethyl-2-methyl-1,2,3,4,4a,9a-hexahydrobenzofuro[2,3-c]pyridin-6-ol] |  | 0.241 ± 0.047 µM |  | 45 ± 2% | little efficacy |  | 
4 | CC[C@@]12CCN(CCc3ccccc3)C[C@@H]1Oc1ccc(O)cc12 [Compound 22, 4aS,9aR-(−)-cis-4a-Ethyl-2-(2-phenylethyl)-1,2,3,4,4a,9a-hexahydrobenzofuro[2,3-c]pyridin-6-ol] |  | 0.024 ± 0.006 µM |  | 84 ± 4% | potent agonist | more than 100 fold | more than 100 fold
5 | CC[C@@]12CCN(C[C@@H](O)c3ccccc3)C[C@@H]1Oc1ccc(O)cc12 [Compound 23, 4aS,9aR,2′S-(−)-cis-2-(2′-Hydroxy-2-phenylethyl)-4a-ethyl-1,2,3,4,4a,9a-hexahydrobenzofuro[2,3-c]pyridin-6-ol] |  | 0.56 ± 0.06 µM |  | 100 ± 3% |  |  | 
6 | CC[C@@]12CCN(C[C@H](O)c3ccccc3)C[C@@H]1Oc1ccc(O)cc12 [Compound 24, 4aS,9aR,2′R-(−)-cis-2-(2′-Hydroxy-2-phenylethyl)-4a-ethyl-1,2,3,4,4a,9a-hexahydrobenzofuro[2,3-c]pyridin-6-ol] |  | 0.48 ± 0.09 µM |  | 36 ± 2% |  |  | 
